From ChEMBL document CHEMBL1151672, “Amarogentin, a naturally occurring secoiridoid glycoside and a newly recognized inhibitor of topoisomerase I from Leishmania donovani” (J Nat Prod, 1996)
Calls of active or inactive are those of the source. The rule behind the calls is not given here.

Test system: Leishmania donovani
Experiment: Inhibition of 2 units of Leishmania donovani MHOM/IN/1978/UR6 DNA topoisomerase 1-mediated supercoiled pGEM4Z DNA relaxation at 5 to 10 uM preincubated for 10 mins prior to DNA addition by agarose gel electrophoresis

## CC[C@@]1(O)C(=O)OCc2c1cc1n(c2=O)Cc2cc3ccccc3nc2-1
  Activity: Active
